These results are taken from US9580437B2, “Triazolopyrimidine compounds and uses thereof” (Novartis AG, priority 2014, dated 2017).

In test [1] the target is wild type PRC2 (wtPRC2) complex (Homo sapiens (Human), UniProt O75530). Put plainly: EED LC-MS assay. Conditions: read-out: (b) IC50 EED LC-MS Qualified. In kind it is biochemical. As for the experimental part: A 6 μL solution of 3 μM of the peptide substrate H3K27Me0 (histone H3[21-44]-biotin) in reaction buffer was added to initiate each reaction. […] ELISA (H3K27 Methylation) Assay
wild type PRC2 (wtPRC2) complex, sequence (O75530 whole entry): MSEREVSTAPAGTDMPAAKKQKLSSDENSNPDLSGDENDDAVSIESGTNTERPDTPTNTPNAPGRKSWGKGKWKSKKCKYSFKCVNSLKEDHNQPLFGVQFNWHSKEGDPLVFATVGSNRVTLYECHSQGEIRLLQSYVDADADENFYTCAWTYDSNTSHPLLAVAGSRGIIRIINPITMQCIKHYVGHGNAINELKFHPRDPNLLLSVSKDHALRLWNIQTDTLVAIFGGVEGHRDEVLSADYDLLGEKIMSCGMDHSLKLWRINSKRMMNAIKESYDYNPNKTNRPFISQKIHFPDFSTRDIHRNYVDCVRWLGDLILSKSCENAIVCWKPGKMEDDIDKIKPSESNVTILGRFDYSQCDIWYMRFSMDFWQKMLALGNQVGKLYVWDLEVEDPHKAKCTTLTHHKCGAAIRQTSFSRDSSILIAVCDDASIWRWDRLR
wild type PRC2 (wtPRC2) complex, sequence (Q15910 whole entry partner): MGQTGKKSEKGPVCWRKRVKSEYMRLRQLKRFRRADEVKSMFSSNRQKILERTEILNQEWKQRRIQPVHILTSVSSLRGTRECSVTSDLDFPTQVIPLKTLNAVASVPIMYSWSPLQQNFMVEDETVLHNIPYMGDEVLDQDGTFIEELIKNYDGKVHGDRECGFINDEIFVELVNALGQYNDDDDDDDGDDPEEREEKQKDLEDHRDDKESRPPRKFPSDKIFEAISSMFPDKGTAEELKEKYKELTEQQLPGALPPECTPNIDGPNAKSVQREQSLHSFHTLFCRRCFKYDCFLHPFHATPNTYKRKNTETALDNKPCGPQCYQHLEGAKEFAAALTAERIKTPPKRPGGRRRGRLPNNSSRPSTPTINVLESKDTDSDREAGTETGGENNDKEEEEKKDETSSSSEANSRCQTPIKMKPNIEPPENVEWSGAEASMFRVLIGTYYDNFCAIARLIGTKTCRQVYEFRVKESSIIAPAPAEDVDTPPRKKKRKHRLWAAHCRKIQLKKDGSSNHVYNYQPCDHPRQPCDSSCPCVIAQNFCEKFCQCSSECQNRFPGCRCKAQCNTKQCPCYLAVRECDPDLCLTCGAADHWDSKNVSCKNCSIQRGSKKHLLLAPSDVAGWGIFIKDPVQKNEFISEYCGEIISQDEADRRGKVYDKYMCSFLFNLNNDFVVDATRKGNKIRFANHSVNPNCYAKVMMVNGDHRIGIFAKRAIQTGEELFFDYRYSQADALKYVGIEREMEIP
wild type PRC2 (wtPRC2) complex, sequence (Q15022 whole entry partner): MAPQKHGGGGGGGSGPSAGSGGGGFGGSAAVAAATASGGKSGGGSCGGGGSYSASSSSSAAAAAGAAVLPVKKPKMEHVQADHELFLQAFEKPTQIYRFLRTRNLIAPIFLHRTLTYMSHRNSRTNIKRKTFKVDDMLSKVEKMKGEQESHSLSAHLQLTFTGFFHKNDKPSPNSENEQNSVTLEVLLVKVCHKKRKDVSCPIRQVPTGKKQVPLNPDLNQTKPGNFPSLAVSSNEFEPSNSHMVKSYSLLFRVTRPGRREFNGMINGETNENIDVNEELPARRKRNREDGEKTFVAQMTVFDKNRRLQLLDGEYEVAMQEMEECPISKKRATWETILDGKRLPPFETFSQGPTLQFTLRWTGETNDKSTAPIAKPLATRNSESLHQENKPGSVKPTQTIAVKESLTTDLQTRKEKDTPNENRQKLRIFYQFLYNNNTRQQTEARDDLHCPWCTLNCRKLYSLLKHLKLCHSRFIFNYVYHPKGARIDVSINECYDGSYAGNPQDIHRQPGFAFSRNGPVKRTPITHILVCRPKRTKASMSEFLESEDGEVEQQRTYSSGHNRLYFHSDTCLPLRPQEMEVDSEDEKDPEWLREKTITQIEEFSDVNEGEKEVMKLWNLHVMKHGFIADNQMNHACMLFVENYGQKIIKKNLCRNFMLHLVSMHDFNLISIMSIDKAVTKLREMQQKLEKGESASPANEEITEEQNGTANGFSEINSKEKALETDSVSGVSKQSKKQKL

The target in another test is EED (1-441)-His protein (Homo sapiens (Human), UniProt O75530). Put plainly: EED-H3K27Me3 peptide competition binding assay by AlphaScreen. Conditions: read-out: (a) IC50 EED Alphascreen binding Qualified. An excerpt: EED-H3K27Me3 peptide competition binding assay by AlphaScreen (α-screen)
EED (1-441)-His protein, sequence (O75530 whole entry): as the sequence (O75530 whole entry) above

The IC50 is the concentration that inhibits the measured activity by half. In the case of `Cc1c(-c2cnc(NCc3cccc4c3CCO4)n3cnnc23)cnn1C` [Example 64, N-((2,3-dihydrobenzofuran-4-yl)methyl)-8-(1,5-dimethyl-1H-pyrazol-4-yl)-[1,2,4]triazolo[4,3-c]pyrimidin-5-amine], the IC50 in test [1] was determined as 41.3 nM; at EED (1-441)-His protein, 12.4 nM.

For the compound `Cc1cnc(Cl)cc1-c1cnc(NCc2c(F)ccc3c2CCO3)n2cnnc12` [Example 228, 8-(2-chloro-5-methylpyridin-4-yl)-N-((5-fluoro-2,3-dihydrobenzofuran-4-yl)methyl)-[1,2,4]triazolo[4,3-c]pyrimidin-5-amine], the results for the IC50 (in test [1]; at EED (1-441)-His protein) were 9 nM and 8.2 nM, respectively.

Regarding `c1ccc(-c2cnc(NCc3cccc4occc34)n3cnnc23)cc1` [Example 217, N-(benzofuran-4-ylmethyl)-8-phenyl-[1,2,4]triazolo[4,3-c]pyrimidin-5-amine], the IC50 in test [1] was found to be 111 nM; at EED (1-441)-His protein, 363 nM.

On to `Fc1ccc2c(c1CNc1ncc(-n3cncn3)c3nncn13)CCO2` [Example 241, N-((5-fluoro-2,3-dihydrobenzofuran-4-yl)methyl)-8-(1H-1,2,4-triazol-1-yl)-[1,2,4]triazolo[4,3-c]pyrimidin-5-amine], for which the IC50 in test [1] is 30 nM; on EED (1-441)-His protein it was 11.3 nM.

Take `Cc1ncccc1-c1c(C)nc(NCc2c(F)ccc3c2CCO3)n2cnnc12` [Example 203, N-((5-fluoro-2,3-dihydrobenzofuran-4-yl)methyl)-7-methyl-8-(2-methylpyridin-3-yl)-[1,2,4]triazolo[4,3-c]pyrimidin-5-amine]: the 50% inhibitory concentration (IC50) in test [1] amounted to 338 nM; on EED (1-441)-His protein, 42.4 nM.

Consider `Fc1ccc2c(c1CNc1ncc(-c3ccnc(N4CCOCC4)c3)c3nncn13)CCO2` [Example 120, N-((5-fluoro-2,3-dihydrobenzofuran-4-yl)methyl)-8-(2-morpholinopyridin-4-yl)-[1,2,4]triazolo[4,3-c]pyrimidin-5-amine], for which the IC50 was 25.6 nM in test [1] and 15.6 nM at EED (1-441)-His protein.

For `Cc1nn(C)c(C)c1-c1cnc(NCc2c(F)ccc3c2CCO3)n2cnnc12` [Example 132, N-((5-fluoro-2,3-dihydrobenzofuran-4-yl)methyl)-8-(1,3,5-trimethyl-1H-pyrazol-4-yl)-[1,2,4]triazolo[4,3-c]pyrimidin-5-amine], the IC50 in test [1] is 10.2 nM; at EED (1-441)-His protein, 6.2 nM.

For `Cc1nc(C(=O)N(C)C)ccc1-c1cnc(NCc2c(F)ccc3c2CCO3)n2cnnc12` [Example 199, 5-(5-(((5-fluoro-2,3-dihydrobenzofuran-4-yl)methyl)amino)-[1,2,4]triazolo[4,3-c]pyrimidin-8-yl)-N,N,6-trimethylpicolinamide], the IC50 in test [1] was found to be 7.2 nM; on EED (1-441)-His protein, 4.2 nM.

Take `Fc1ccccc1-c1cnc(NCc2cccc3c2CCO3)n2cnnc12` [Example 31, N-((2,3-dihydrobenzofuran-4-yl)methyl)-8-(2-fluorophenyl)-[1,2,4]triazolo[4,3-c]pyrimidin-5-amine]: the figures for the IC50 (in test [1]; at EED (1-441)-His protein) were 21.5 nM and 30.2 nM, respectively.

Regarding `COCc1cc(-c2cnc(NCc3cccc4c3CCO4)n3cnnc23)cnc1C` [Example 137, N-((2,3-dihydrobenzofuran-4-yl)methyl)-8-(5-(methoxymethyl)-6-methylpyridin-3-yl)-[1,2,4]triazolo[4,3-c]pyrimidin-5-amine], the IC50 in test [1] amounted to 29.6 nM; at EED (1-441)-His protein it was 22 nM.

As for `Fc1ccc2c(c1CNc1ncc(-c3cncnc3C(F)F)c3nncn13)CCO2` [Example 191, 8-(4-(difluoromethyl)pyrimidin-5-yl)-N-((5-fluoro-2,3-dihydrobenzofuran-4-yl)methyl)-[1,2,4]triazolo[4,3-c]pyrimidin-5-amine], the IC50 in test [1] was found to be 13.1 nM; at EED (1-441)-His protein, 3.8 nM.

As to `Fc1ccccc1-c1cnc(NCc2c(F)ccc3c2CCO3)n2cnnc12` [Example 94, N-((5-fluoro-2,3-dihydrobenzofuran-4-yl)methyl)-8-(2-fluorophenyl)-[1,2,4]triazolo[4,3-c]pyrimidin-5-amine], the half-inhibitory concentration (IC50) in test [1] came out at 18.6 nM; on EED (1-441)-His protein, 11.3 nM.

Turning to `Fc1ccc2c(c1CNc1ncc(-c3ccc(C(F)(F)F)nc3)c3nncn13)CCO2` [Example 160, N-((5-fluoro-2,3-dihydrobenzofuran-4-yl)methyl)-8-(6-(trifluoromethyl)pyridin-3-yl)-[1,2,4]triazolo[4,3-c]pyrimidin-5-amine], the half-maximal inhibitory concentration (IC50) in test [1] amounted to 11.3 nM; at EED (1-441)-His protein it was 5.9 nM.

With `Cc1nn(C)cc1-c1cnc(NCc2c(F)ccc3c2CCO3)n2cnnc12` [Example 195, 8-(1,3-dimethyl-1H-pyrazol-4-yl)-N-((5-fluoro-2,3-dihydrobenzofuran-4-yl)methyl)-[1,2,4]triazolo[4,3-c]pyrimidin-5-amine], the IC50 is 11.6 nM in test [1] and 5.9 nM at EED (1-441)-His protein.

`CC(O)c1ccc(-c2cnc(NCc3cccc4c3CCO4)n3cnnc23)cn1` (stereo not shown) [Example 84, 1-(5-(5-(((2,3-dihydrobenzofuran-4-yl)methyl)amino)-[1,2,4]triazolo[4,3-c]pyrimidin-8-yl)pyridin-2-yl)ethanol]: the values for the IC50 (in test [1]; on EED (1-441)-His protein) were 12.9 nM and 6.3 nM, respectively.

`Nc1ccncc1-c1cnc(NCc2cccc3c2CCO3)n2cnnc12` [Example 76, 8-(4-aminopyridin-3-yl)-N-((2,3-dihydrobenzofuran-4-yl)methyl)-[1,2,4]triazolo[4,3-c]pyrimidin-5-amine]: the IC50 in test [1] was 56.9 nM; on EED (1-441)-His protein, 27.5 nM.

Consider `CC(=O)NCc1ccc(-c2cnc(NCc3c(F)ccc4c3CCO4)n3cnnc23)cn1` [Example 171, N-((5-(5-(((5-fluoro-2,3-dihydrobenzofuran-4-yl)methyl)amino)-[1,2,4]triazolo[4,3-c]pyrimidin-8-yl)pyridin-2-yl)methyl)acetamide], for which the IC50 in test [1] turned out to be 7.3 nM; at EED (1-441)-His protein, 6 nM.

Turning to `CC(c1ccc(-c2cnc(NCc3cccc4occc34)n3cnnc23)cc1)N1CCCC1` (stereo not shown) [Example 210, N-(benzofuran-4-ylmethyl)-8-(4-(1-(pyrrolidin-1-yl)ethyl)phenyl)-[1,2,4]triazolo[4,3-c]pyrimidin-5-amine], the IC50 in test [1] is 21.4 nM; at EED (1-441)-His protein, 18.5 nM.

Turning to `CC(c1ccc(-c2cnc(NCc3c(F)ccc4c3CCO4)n3cnnc23)cc1)N1CCCC1` (stereo not shown) [Example 46, N-((5-fluoro-2,3-dihydrobenzofuran-4-yl)methyl)-8-(4-(1-(pyrrolidin-1-yl)ethyl)phenyl)-[1,2,4]triazolo[4,3-c]pyrimidin-5-amine], the IC50 in test [1] is 64 nM; at EED (1-441)-His protein, 43.5 nM.

In the case of `Cc1cc(F)ccc1-c1cnc(NCc2c(F)ccc3c2CCO3)n2cnnc12` [Example 165, N-((5-fluoro-2,3-dihydrobenzofuran-4-yl)methyl)-8-(4-fluoro-2-methylphenyl)-[1,2,4]triazolo[4,3-c]pyrimidin-5-amine], the values for the IC50 (in test [1]; on EED (1-441)-His protein) were 7.4 nM and 4.5 nM, respectively.

Regarding `Cn1ncc(-c2cnc(NCc3c(F)ccc4c3CCO4)n3cnnc23)c1CO` [Example 227, (4-(5-(((5-fluoro-2,3-dihydrobenzofuran-4-yl)methyl)amino)-[1,2,4]triazolo[4,3-c]pyrimidin-8-yl)-1-methyl-1H-pyrazol-5-yl)methanol], the 50% inhibitory concentration (IC50) in test [1] was 7.5 nM; at EED (1-441)-His protein, 6.1 nM.

For the compound `COCc1ncc(-c2cnc(NCc3cccc4c3CCO4)n3cnnc23)cc1C` [Example 83, N-((2,3-dihydrobenzofuran-4-yl)methyl)-8-(6-(methoxymethyl)-5-methylpyridin-3-yl)-[1,2,4]triazolo[4,3-c]pyrimidin-5-amine], the IC50 in test [1] is 22.8 nM; on EED (1-441)-His protein, 10.5 nM.

As for `CC(C)(O)c1ccc(-c2cnc(NCc3cccc4c3CCO4)n3cnnc23)cn1` [Example 99, 2-(5-(5-(((2,3-dihydrobenzofuran-4-yl)methyl)amino)-[1,2,4]triazolo[4,3-c]pyrimidin-8-yl)pyridin-2-yl)propan-2-ol], the IC50 in test [1] is 6.7 nM; at EED (1-441)-His protein it was 4.2 nM.

In the case of `Fc1ccc2c(c1CNc1ncc(-c3cnccc3Cl)c3nncn13)CCO2` [Example 124, 8-(4-chloropyridin-3-yl)-N-((5-fluoro-2,3-dihydrobenzofuran-4-yl)methyl)-[1,2,4]triazolo[4,3-c]pyrimidin-5-amine], the IC50 stood at 15.4 nM in test [1] and 10 nM at EED (1-441)-His protein.

Regarding `OCCOc1ccc(-c2cnc(NCc3cccc4c3CCO4)n3cnnc23)cc1` [Example 38, 2-(4-(5-(((2,3-dihydrobenzofuran-4-yl)methyl)amino)-[1,2,4]triazolo[4,3-c]pyrimidin-8-yl)phenoxy)ethanol], the IC50 in test [1] worked out at 34.9 nM; at EED (1-441)-His protein, 24.2 nM.

With `Cn1nccc1-c1cnc(NCc2c(F)ccc3c2CCO3)n2cnnc12` [Example 169, N-((5-fluoro-2,3-dihydrobenzofuran-4-yl)methyl)-8-(1-methyl-1H-pyrazol-5-yl)-[1,2,4]triazolo[4,3-c]pyrimidin-5-amine], the values for the IC50 (in test [1]; at EED (1-441)-His protein) were 6.6 nM and 4.5 nM, respectively.

Regarding `CN(C)CCc1ccc(-c2cnc(NCc3cccc4c3CCO4)n3cnnc23)cn1` [Example 53, N-((2,3-dihydrobenzofuran-4-yl)methyl)-8-(6-(2-(dimethylamino)ethyl)pyridin-3-yl)-[1,2,4]triazolo[4,3-c]pyrimidin-5-amine], the values for the IC50 (in test [1]; on EED (1-441)-His protein) were 28.7 nM and 12.4 nM, respectively.

Take `Fc1ccncc1-c1cnc(NCc2c(F)ccc3c2CCO3)n2cnnc12` [Example 47, N-((5-fluoro-2,3-dihydrobenzofuran-4-yl)methyl)-8-(4-fluoropyridin-3-yl)-[1,2,4]triazolo[4,3-c]pyrimidin-5-amine]: the IC50 in test [1] came out at 4.9 nM; at EED (1-441)-His protein, 5.2 nM.

Turning to `Cc1nc(C2CC2)ccc1-c1cnc(NCc2c(F)ccc3c2CCO3)n2cnnc12` [Example 6, 8-(6-Cyclopropyl-2-methylpyridin-3-yl)-N-((5-fluoro-2,3-dihydrobenzofuran-4-yl)methyl)-[1,2,4]triazolo[4,3-c]pyrimidin-5-amine], the IC50 was found to be 7.7 nM in test [1] and 5.2 nM at EED (1-441)-His protein.
